Tests used:
[1] = Solubility of compound in water; format: physicochemical; details: buffer
TE-1 = assay: Antiproliferative activity against human TE1 cells assessed as reduction in cell viability incubated for 72 hrs by SRB assay; format: functional, cell-based; details: TE-1, 72 h
MCF7 = assay: Antiproliferative activity against human MCF7 cells assessed as reduction in cell viability incubated for 72 hrs by SRB assay; format: functional, cell-based; details: MCF7, 72 h
MGC-803 = assay: Antiproliferative activity against human MGC803 cells assessed as reduction in cell viability incubated for 72 hrs by SRB assay; format: functional, cell-based; details: MGC-803, 72 h
A549 = assay: Antiproliferative activity against human A549 cells assessed as reduction in cell viability incubated for 72 hrs by SRB assay; format: functional, cell-based; details: A549, 72 h

SMILES | solubility [1] | IC50 (TE-1) | IC50 (MCF7) | IC50 (MGC-803) | IC50 (A549)
C=C1C(=O)[C@]23[C@H](OC(=O)CNC)[C@H]1C[C@H](O)[C@H]2[C@]1(COC(C)=O)CCCC(C)(C)[C@H]1C[C@H]3OC.O=C(O)C(F)(F)F | Soluble | 3.19 µM | 3.62 µM | 5.35 µM | 5.86 µM
C=C1C(=O)[C@]23[C@H](OC(=O)CCCCNC(=O)OC(C)(C)C)[C@H]1C[C@H](O)[C@H]2[C@]1(COC(C)=O)CCCC(C)(C)[C@H]1C[C@H]3OC | Insoluble | 1.19 µM | 1.56 µM | 3.06 µM | 5.64 µM
C=C1C(=O)[C@]23[C@H](OC(=O)[C@@H](N)c4ccccc4)[C@H]1C[C@H](O)[C@H]2[C@]1(COC(C)=O)CCCC(C)(C)[C@H]1C[C@H]3OC.O=C(O)C(F)(F)F | Soluble | 0.92 µM | 1.11 µM | 1.66 µM | 1.68 µM
C=C1C(=O)[C@]23[C@H](OC(=O)[C@H](CCCC)NC(=O)OC(C)(C)C)[C@H]1C[C@H](O)[C@H]2[C@]1(COC(C)=O)CCCC(C)(C)[C@H]1C[C@H]3OC | Insoluble | 4.49 µM | 4.42 µM | 11.2 µM | 11 µM
C=C1C(=O)[C@]23[C@H](O)[C@H]1CC[C@H]2[C@@]12CO[C@]3(O)[C@@H](O)[C@@H]1C(C)(C)CC[C@@H]2O [ORIDONIN] | – | 12.7 µM | 22 µM | 14.1 µM | 13.5 µM
C=C1C(=O)[C@]23[C@H](OC(=O)[C@@H]4CCCCN4)[C@H]1C[C@H](O)[C@H]2[C@]1(COC(C)=O)CCCC(C)(C)[C@H]1C[C@H]3OC.O=C(O)C(F)(F)F | Soluble | 3.16 µM | 3.49 µM | 7.15 µM | 2.84 µM
C=C1C(=O)[C@]23[C@H](OC(=O)[C@@H](N)C(C)C)[C@H]1C[C@H](O)[C@H]2[C@]1(COC(C)=O)CCCC(C)(C)[C@H]1C[C@H]3OC.O=C(O)C(F)(F)F | Soluble | 1.97 µM | 1.27 µM | 0.99 µM | 2.67 µM
C=C1C(=O)[C@]23[C@H](OC(=O)CCCCCN)[C@H]1C[C@H](O)[C@H]2[C@]1(COC(C)=O)CCCC(C)(C)[C@H]1C[C@H]3OC.O=C(O)C(F)(F)F | Soluble | 5.36 µM | 3.68 µM | 5.14 µM | 11.4 µM
C=C1C(=O)[C@]23[C@H](OC(=O)[C@H]4CCCN(C(=O)OC(C)(C)C)C4)[C@H]1C[C@H](O)[C@H]2[C@]1(COC(C)=O)CCCC(C)(C)[C@H]1C[C@H]3OC | Insoluble | 1.65 µM | 2.58 µM | 2.55 µM | 3.49 µM
C=C1C(=O)[C@]23[C@H](OC(=O)[C@H](Cc4ccccc4)N(C)C(=O)OC(C)(C)C)[C@H]1C[C@H](O)[C@H]2[C@]1(COC(C)=O)CCCC(C)(C)[C@H]1C[C@H]3OC | Insoluble | 1.16 µM | 2.46 µM | 1.51 µM | 3.15 µM
C=C1C(=O)[C@]23[C@H](OC(=O)[C@H](C)NC)[C@H]1C[C@H](O)[C@H]2[C@]1(COC(C)=O)CCCC(C)(C)[C@H]1C[C@H]3OC.O=C(O)C(F)(F)F | Soluble | 3.32 µM | 5.03 µM | 6.34 µM | 2.79 µM
C=C1C(=O)[C@]23[C@H](OC(=O)[C@H](CCCNC(=O)OC(C)(C)C)NC(=O)OC(C)(C)C)[C@H]1C[C@H](O)[C@H]2[C@]1(COC(C)=O)CCCC(C)(C)[C@H]1C[C@H]3OC | Insoluble | 1.39 µM | 2.15 µM | 3.33 µM | 2.99 µM
C=C1C(=O)[C@]23[C@H](OC(=O)CN(C)C(=O)OC(C)(C)C)[C@H]1C[C@H](O)[C@H]2[C@]1(COC(C)=O)CCCC(C)(C)[C@H]1C[C@H]3OC | Insoluble | 1.45 µM | 3.08 µM | 3.94 µM | 5.46 µM
C=C1C(=O)[C@]23[C@H](OC(=O)[C@@H](N)CCc4ccccc4)[C@H]1C[C@H](O)[C@H]2[C@]1(COC(C)=O)CCCC(C)(C)[C@H]1C[C@H]3OC.O=C(O)C(F)(F)F | Soluble | 2.98 µM | 1.81 µM | 1.06 µM | 3.35 µM
C=C1C(=O)[C@]23[C@H](OC(=O)[C@H](C)N)[C@H]1C[C@H](O)[C@H]2[C@]1(COC(C)=O)CCCC(C)(C)[C@H]1C[C@H]3OC.O=C(O)C(F)(F)F | Soluble | 3.07 µM | 7.37 µM | 10.5 µM | 3.96 µM
C=C1C(=O)[C@]23[C@H](OC(=O)[C@@H](N)CCCC)[C@H]1C[C@H](O)[C@H]2[C@]1(COC(C)=O)CCCC(C)(C)[C@H]1C[C@H]3OC.O=C(O)C(F)(F)F | Soluble | 2.64 µM | 2.51 µM | 3.22 µM | 1.54 µM
C=C1C(=O)[C@]23[C@H](OC(=O)CCCCCNC(=O)OC(C)(C)C)[C@H]1C[C@H](O)[C@H]2[C@]1(COC(C)=O)CCCC(C)(C)[C@H]1C[C@H]3OC | Insoluble | 1.72 µM | 2.84 µM | 3.5 µM | 5.41 µM
C=C1C(=O)[C@]23[C@H](OC(=O)CCCCN)[C@H]1C[C@H](O)[C@H]2[C@]1(COC(C)=O)CCCC(C)(C)[C@H]1C[C@H]3OC.O=C(O)C(F)(F)F | Soluble | 3.16 µM | 7.89 µM | 7.15 µM | 1.62 µM
C=C1C(=O)[C@]23[C@H](OC(=O)[C@@H](N)CCC)[C@H]1C[C@H](O)[C@H]2[C@]1(COC(C)=O)CCCC(C)(C)[C@H]1C[C@H]3OC.O=C(O)C(F)(F)F | Soluble | 1.72 µM | 4.57 µM | 4.94 µM | 1.64 µM
C=C1C(=O)[C@]23[C@H](OC(=O)[C@@H](NC(=O)OC(C)(C)C)C(C)C)[C@H]1C[C@H](O)[C@H]2[C@]1(COC(C)=O)CCCC(C)(C)[C@H]1C[C@H]3OC | Insoluble | 1.68 µM | 2.73 µM | 2.88 µM | 3.94 µM
C=C1C(=O)[C@@]23[C@H](O)C[C@@H]4C(C)(C)CCC[C@@]4(COC(C)=O)[C@@H]2[C@@H](O)C[C@@H]1[C@H]3O [FLEXICANLIN A] | Insoluble | 5.07 µM | 5.45 µM | 9.94 µM | 6.77 µM
C=C1C(=O)[C@]23[C@H](OC(=O)[C@H](CC)NC(=O)OC(C)(C)C)[C@H]1C[C@H](O)[C@H]2[C@]1(COC(C)=O)CCCC(C)(C)[C@H]1C[C@H]3OC | Insoluble | 1.74 µM | 3.09 µM | 4.85 µM | 4.81 µM
C=C1C(=O)[C@]23[C@H](OC(=O)[C@H](CCc4ccccc4)NC(=O)OC(C)(C)C)[C@H]1C[C@H](O)[C@H]2[C@]1(COC(C)=O)CCCC(C)(C)[C@H]1C[C@H]3OC | Insoluble | 1.63 µM | 2.18 µM | 1.73 µM | 3.72 µM
C=C1C(=O)[C@]23[C@H](OC(=O)CNC(=O)OC(C)(C)C)[C@H]1C[C@H](O)[C@H]2[C@]1(COC(C)=O)CCCC(C)(C)[C@H]1C[C@H]3OC | Insoluble | 1.64 µM | 1.7 µM | 5.71 µM | 4.24 µM
C=C1C(=O)[C@]23[C@H](OC(=O)[C@@H](NC(=O)OC(C)(C)C)c4ccccc4)[C@H]1C[C@H](O)[C@H]2[C@]1(COC(C)=O)CCCC(C)(C)[C@H]1C[C@H]3OC | Insoluble | 0.87 µM | 1.58 µM | 2.21 µM | 2.94 µM
C=C1C(=O)[C@]23[C@H](OC(=O)[C@H](C)NC(=O)OC(C)(C)C)[C@H]1C[C@H](O)[C@H]2[C@]1(COC(C)=O)CCCC(C)(C)[C@H]1C[C@H]3OC | Insoluble | 1.07 µM | 2.36 µM | 2.64 µM | 5.63 µM
C=C1C(=O)[C@]23[C@H](OC(=O)[C@H](CCC)NC(=O)OC(C)(C)C)[C@H]1C[C@H](O)[C@H]2[C@]1(COC(C)=O)CCCC(C)(C)[C@H]1C[C@H]3OC | Insoluble | 1.82 µM | 2.59 µM | 4.93 µM | 6.81 µM
C=C1C(=O)[C@]23[C@H](OC(=O)[C@H](CCSC)NC(=O)OC(C)(C)C)[C@H]1C[C@H](O)[C@H]2[C@]1(COC(C)=O)CCCC(C)(C)[C@H]1C[C@H]3OC | Insoluble | 1.33 µM | 2.27 µM | 2.86 µM | 4.63 µM
C=C1C(=O)[C@]23[C@H](OC(=O)[C@@H](N)CCCN)[C@H]1C[C@H](O)[C@H]2[C@]1(COC(C)=O)CCCC(C)(C)[C@H]1C[C@H]3OC.O=C(O)C(F)(F)F.O=C(O)C(F)(F)F | Soluble | 2.71 µM | 6.55 µM | 5.28 µM | 8.04 µM
C=C1C(=O)[C@]23[C@H](O)[C@H]1C[C@H](O)[C@H]2[C@]1(COC(C)=O)CCCC(C)(C)[C@H]1C[C@H]3OC | – | 4.4 µM | 1.65 µM | 1.11 µM | 1.77 µM

Source: ChEMBL document CHEMBL4406842, “Synthesis and in vitro biological evaluation of novel derivatives of Flexicaulin A condensation with amino acid trifluoroacetate” (Eur J Med Chem, 2019)
